Laboratory results from the NIST ThermoML archive (doi:10.1016/j.jct.2005.12.005).

Columns and labels:
[1] = refractive index (Na D-line) (dimensionless); xn = mol fraction of the nth substance listed; conditions: 101 kPa, Liquid
[2] = xn = mol fraction of the nth substance listed; conditions: 101 kPa, Liquid; for speed of sound: Sing-around technique in a fixed-path interferometer

CC1CCCCC1 [methylcyclohexane] + COc1ccccc1
x1 = 1
Conditions | mass density, 298.15 K [kg/m3] | mass density, 303.15 K [kg/m3] | mass density, 308.15 K [kg/m3] | refractive index, 298.15 K | refractive index, 303.15 K | refractive index, 308.15 K | speed of sound, 298.15 K [m/s] | viscosity, 298.15 K [mPa·s] | viscosity, 303.15 K [mPa·s] | viscosity, 308.15 K [mPa·s]
[1] | – | – | – | 1.4217 | 1.4192 | 1.4163 | – | – | – | –
[2] | 765 | 760.7 | 756.3 | – | – | – | 1217 | 0.676 | 0.631 | 0.59

CC1CCCCC1 [methylcyclohexane] + Cc1cc(C)cc(C)c1
x1 = 1
Conditions | mass density, 298.15 K [kg/m3] | mass density, 303.15 K [kg/m3] | mass density, 308.15 K [kg/m3] | refractive index, 298.15 K | refractive index, 303.15 K | refractive index, 308.15 K | speed of sound, 298.15 K [m/s] | viscosity, 298.15 K [mPa·s] | viscosity, 303.15 K [mPa·s] | viscosity, 308.15 K [mPa·s]
[1] | – | – | – | 1.4217 | 1.4192 | 1.4163 | – | – | – | –
[2] | 765 | 760.7 | 756.3 | – | – | – | 1217 | 0.676 | 0.631 | 0.59

CC1CCCCC1 [methylcyclohexane] + Cc1ccc(C)cc1
Conditions | mass density, 298.15 K [kg/m3] | mass density, 303.15 K [kg/m3] | mass density, 308.15 K [kg/m3] | refractive index, 298.15 K | refractive index, 303.15 K | refractive index, 308.15 K | speed of sound, 298.15 K [m/s] | viscosity, 298.15 K [mPa·s] | viscosity, 303.15 K [mPa·s] | viscosity, 308.15 K [mPa·s]
[1], x1 = 0.0993 | – | – | – | 1.4848 | 1.482 | 1.4793 | – | – | – | –
[1], x1 = 0.2037 | – | – | – | 1.4767 | 1.4743 | 1.4718 | – | – | – | –
[1], x1 = 0.3028 | – | – | – | 1.469 | 1.4668 | 1.4646 | – | – | – | –
[1], x1 = 0.4047 | – | – | – | 1.4615 | 1.4594 | 1.4572 | – | – | – | –
[1], x1 = 0.5382 | – | – | – | 1.4519 | 1.4498 | 1.4476 | – | – | – | –
[1], x1 = 0.6035 | – | – | – | 1.4473 | 1.4451 | 1.443 | – | – | – | –
[1], x1 = 0.703 | – | – | – | 1.4405 | 1.4384 | 1.4362 | – | – | – | –
[1], x1 = 0.8037 | – | – | – | 1.4338 | 1.4314 | 1.429 | – | – | – | –
[1], x1 = 0.8981 | – | – | – | 1.4279 | 1.4253 | 1.4228 | – | – | – | –
[1], x1 = 1 | – | – | – | 1.4217 | 1.4192 | 1.4163 | – | – | – | –
[2], x1 = 0.0993 | 846.6 | 842.3 | 837.9 | – | – | – | 1315 | 0.597 | 0.566 | 0.536
[2], x1 = 0.2037 | 836.2 | 831.8 | 827.5 | – | – | – | 1303 | 0.59 | 0.557 | 0.523
[2], x1 = 0.3028 | 826.4 | 822.1 | 817.8 | – | – | – | 1293 | 0.587 | 0.553 | 0.52
[2], x1 = 0.4047 | 816.7 | 812.3 | 808 | – | – | – | 1282 | 0.586 | 0.553 | 0.52
[2], x1 = 0.5382 | 804.2 | 799.9 | 795.5 | – | – | – | 1268 | 0.593 | 0.559 | 0.525
[2], x1 = 0.6035 | 798.3 | 794 | 789.6 | – | – | – | 1261 | 0.597 | 0.562 | 0.528
[2], x1 = 0.703 | 789.5 | 785.1 | 780.8 | – | – | – | 1250 | 0.608 | 0.573 | 0.537
[2], x1 = 0.8037 | 780.8 | 776.5 | 772.2 | – | – | – | 1239 | 0.625 | 0.588 | 0.55
[2], x1 = 0.8981 | 773 | 768.7 | 764.4 | – | – | – | 1228 | 0.646 | 0.607 | 0.569
[2], x1 = 1 | 765 | 760.7 | 756.3 | – | – | – | 1217 | 0.676 | 0.631 | 0.59

CC1CCCCC1 [methylcyclohexane] + Cc1ccccc1
Conditions | mass density, 298.15 K [kg/m3] | mass density, 303.15 K [kg/m3] | mass density, 308.15 K [kg/m3] | refractive index, 298.15 K | refractive index, 303.15 K | refractive index, 308.15 K | speed of sound, 298.15 K [m/s] | viscosity, 298.15 K [mPa·s] | viscosity, 303.15 K [mPa·s] | viscosity, 308.15 K [mPa·s]
[1], x1 = 0.1027 | – | – | – | 1.4838 | 1.4811 | 1.4783 | – | – | – | –
[1], x1 = 0.205 | – | – | – | 1.475 | 1.4723 | 1.4696 | – | – | – | –
[1], x1 = 0.3034 | – | – | – | 1.4666 | 1.4641 | 1.4615 | – | – | – | –
[1], x1 = 0.4043 | – | – | – | 1.4586 | 1.4561 | 1.4537 | – | – | – | –
[1], x1 = 0.5031 | – | – | – | 1.4511 | 1.4486 | 1.4461 | – | – | – | –
[1], x1 = 0.5988 | – | – | – | 1.4443 | 1.4418 | 1.4392 | – | – | – | –
[1], x1 = 0.7061 | – | – | – | 1.4373 | 1.4347 | 1.4321 | – | – | – | –
[1], x1 = 0.8005 | – | – | – | 1.4315 | 1.4289 | 1.4263 | – | – | – | –
[1], x1 = 0.8984 | – | – | – | 1.4261 | 1.4234 | 1.4208 | – | – | – | –
[1], x1 = 1 | – | – | – | 1.4217 | 1.4192 | 1.4163 | – | – | – | –
[2], x1 = 0.1027 | 849.5 | 844.9 | 840.3 | – | – | – | 1304 | 0.551 | 0.52 | 0.49
[2], x1 = 0.205 | 837.5 | 832.9 | 828.3 | – | – | – | 1295 | 0.547 | 0.518 | 0.489
[2], x1 = 0.3034 | 826.6 | 822 | 817.5 | – | – | – | 1285 | 0.548 | 0.517 | 0.487
[2], x1 = 0.4043 | 816 | 811.5 | 807 | – | – | – | 1275 | 0.556 | 0.523 | 0.491
[2], x1 = 0.5031 | 806.3 | 801.8 | 797.3 | – | – | – | 1266 | 0.564 | 0.532 | 0.5
[2], x1 = 0.5988 | 797.3 | 792.8 | 788.4 | – | – | – | 1256 | 0.577 | 0.544 | 0.51
[2], x1 = 0.7061 | 787.8 | 783.4 | 779 | – | – | – | 1246 | 0.592 | 0.558 | 0.524
[2], x1 = 0.8005 | 780 | 775.6 | 771.2 | – | – | – | 1237 | 0.614 | 0.577 | 0.54
[2], x1 = 0.8984 | 772.4 | 768 | 763.7 | – | – | – | 1227 | 0.643 | 0.603 | 0.563
[2], x1 = 1 | 765 | 760.7 | 756.3 | – | – | – | 1217 | 0.676 | 0.631 | 0.59
